From patent US4800194A, “Acylphosphorotriamides useful as lipid-altering agents” (priority 1986, dated 1989)

Columns and labels:
acetylcholinesterase = target: T1, acetylcholinesterase (Homo sapiens, UniProt P22303); test: Inhibition of acetylcholinesterase (AChE) activity of lysed human red blood cells (Test Method 1); assay type: biochemical; conditions: 60 min preincubation
T1 construct: The supernatant (lysed RBC's) was stored frozen; from tissue; host or cells: lysed human red blood cells (supernatant of hypotonic lysis)
Procedure: (§1) The following method was used to determine the relative inhibition of pseudocholinesterase and acetylcholinesterase by compounds of the present invention.
Lysed Red Blood Cells (RBC's) (Source of Acetylcholinesterase Enzyme)
Human blood which was collected in EDTA treated tubes was centrifuged at 1500×g for 10 min. at 4° C. One volume of chilled 0.9% saline solution was gently mixed with one volume of packed RBC's. One volume of this suspension was then washed three times with ten volumes of chilled 0.9% saline solution (4° C.). Each wash was centrifuged at 1500×g for 10 min. at 4° C. and supernatant was discarded. After the last wash the supernatant was replaced with deionized, distilled water (treated by Milli-Q apparatus, Millipore Corp., Bedford, MA) (4° C.). After 15 min. at 4° C. the suspension was centrifuged at 1500×g for 10 min. at 4° C. The supernatant (lysed RBC's) was stored frozen at -20° C. until use.
(§2) The buffer/chromogen solution was 0.25 mM 5,5'-dithiobis-[2-nitrobenzoic acid] (chromogen), 50 mM phosphate buffer, pH 7.2. In making up the buffer/chromogen solution and to keep it as colorless as possible, the phosphate buffer was first adjusted to pH 7.1 with NaOH; the chromogen was then added and dissolved; the pH was adjusted to 7.2; and the final volume was adjusted with addition of Milli-Q water. 5,5'-dithiobis-(2-nitrobenzoic acid) was obtained from Sigma Chemicals, St. Louis, MO.
(§3) The substrate solution for the pseudocholinesterase assay was 156 mM S-butyrylthiocholine iodide, and the substrate solution for the acetylcholinesterase assay was 156 mM S-acetylthiocholine iodide. Both substrate compounds were obtained from Sigma Chemicals.
(§4) Test Compound Stock Solutions
(§5) Solutions of all test compounds were made up at 2 μM, 20 μM, and 200 μM concentrations (in 0.9% saline solution) except as noted where lower concentrations were necessary because of decreased solubility of the compound in saline solution.
Acetylcholinesterase (AChE) Assay
The acetylcholinesterase assay was performed identically to the pseudocholinesterase assay with the following exceptions. The concentrations of the stock solutions of test compounds were 20 μM and 200 μM, instead of 2 μM and 20 μM, and the substrate solution was 156 mM S-acetylthiocholine iodide instead of S-butyrylthiocholine iodide. The lysed RBC's/test compound solution was incubated for 0 and 60 minutes instead of 0 and 30 minutes before being added to the cuvette containing the buffer/chromogen/substrate solution. From a plot of net absorbance versus time there was an initial period before the curve reached a steady linear rate. From this linear portion of the curve a rate of absorbance change per minute was calculated.
(§6) Each compound was tested for its ability to inhibit plasma pseudocholinesterase activity and acetylcholinesterase activity. Because of variation in the time points in the linear portion of the curve, inhibition values below 10-15% and higher than 85-90% are nearly indistinguishable from 0% and 100%, respectively.

pseudocholinesterase [1] = target: T2, pseudocholinesterase (Homo sapiens, UniProt P06276); test: Inhibition of human plasma pseudocholinesterase (PChE) activity (Test Method 1); assay type: biochemical; conditions: 30 min preincubation
T2 construct: a 100 μl aliquot of human plasma; from tissue; host or cells: human plasma (EDTA blood, stored frozen)
Procedure: as §1
Plasma (Source of Pseudocholinesterase Enzyme)
Human Plasma was obtained from blood which was collected in ethylenediaminetetraacetic acid (EDTA) treated tubes. Collected plasma was stored frozen at -20° C. until use.
as §2, §3, §4, §5
Pseudocholinesterase (PChE) Assay
In three separate tubes, a 100 μl aliquot of either 0.9% saline solution, 2 μM test compound solution, or 20 μM test compound solution was mixed with a 100 μl aliquot of human plasma, and the tubes were placed in a 35° C. water bath. Four cuvettes, each containing 3 ml buffer/chromogen solution mixed with 100 μl substrate solution (156 mM S-butyrylthiocholine iodide), had been placed in a heated cuvette holder (35° C.) in a Beckman DU-8B Spectrophotometer (Beckman Instruments). After the temperature of the buffer/chromogen/substrate solution in the cuvette had equilibrated for about 10 minutes, and after 0 or 30 minutes incubation of the plasma/test compound solution, a 25 μl aliquot of the plasma/test compound solutions was added to the corresponding cuvettes numbered 2-4. Cuvette #1 remained a blank. After mixing, the net absorbance of each cuvette was determined at 405 nm every 35 seconds for ten readings. From a plot of net absorbance versus time, the initial linear portion of the curve was determined, and a rate of absorbance change per minute was calculated. The positive control (100% PChE activity) was the plasma/saline solution.
as §6

pseudocholinesterase [2] = conditions: accidental poisoning; cited from earlier work
[3] = accidental poisoning; cited from earlier work

T1 sequence (P22303 other isoform, or with tags, fused parts or gaps): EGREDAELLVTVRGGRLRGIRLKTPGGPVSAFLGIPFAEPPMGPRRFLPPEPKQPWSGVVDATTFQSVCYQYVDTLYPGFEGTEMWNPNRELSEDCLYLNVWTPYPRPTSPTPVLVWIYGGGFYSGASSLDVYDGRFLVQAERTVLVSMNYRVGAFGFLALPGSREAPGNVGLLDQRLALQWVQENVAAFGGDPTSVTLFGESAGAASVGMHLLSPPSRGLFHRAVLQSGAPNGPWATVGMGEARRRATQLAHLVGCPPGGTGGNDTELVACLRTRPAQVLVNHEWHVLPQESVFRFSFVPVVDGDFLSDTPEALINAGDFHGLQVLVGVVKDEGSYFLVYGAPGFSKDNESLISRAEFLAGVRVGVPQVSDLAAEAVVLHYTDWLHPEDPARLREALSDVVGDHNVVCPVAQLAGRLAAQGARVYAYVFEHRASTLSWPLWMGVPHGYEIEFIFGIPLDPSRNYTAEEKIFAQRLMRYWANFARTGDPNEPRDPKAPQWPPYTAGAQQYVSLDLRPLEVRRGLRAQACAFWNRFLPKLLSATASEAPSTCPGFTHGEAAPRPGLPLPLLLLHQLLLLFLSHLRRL
T2 sequence (P06276 29-602): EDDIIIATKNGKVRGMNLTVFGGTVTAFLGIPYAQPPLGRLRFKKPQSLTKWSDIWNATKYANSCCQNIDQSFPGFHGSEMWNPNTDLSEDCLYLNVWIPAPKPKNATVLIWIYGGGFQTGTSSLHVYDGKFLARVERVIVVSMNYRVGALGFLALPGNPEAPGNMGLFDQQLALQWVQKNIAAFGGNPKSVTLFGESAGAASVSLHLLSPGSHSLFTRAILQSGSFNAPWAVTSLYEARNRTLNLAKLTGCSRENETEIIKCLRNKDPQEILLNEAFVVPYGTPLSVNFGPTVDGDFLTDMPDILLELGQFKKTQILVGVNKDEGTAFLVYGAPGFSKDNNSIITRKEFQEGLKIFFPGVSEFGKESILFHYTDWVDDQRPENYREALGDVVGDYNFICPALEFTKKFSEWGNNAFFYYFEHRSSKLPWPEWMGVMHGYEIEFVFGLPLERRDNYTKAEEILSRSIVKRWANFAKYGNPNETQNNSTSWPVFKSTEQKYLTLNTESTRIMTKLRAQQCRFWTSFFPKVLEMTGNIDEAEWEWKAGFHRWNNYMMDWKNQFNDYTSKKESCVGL

| Structure (SMILES) | inhibition at 10 µM (acetylcholinesterase) [%] | inhibition at 100 µM (acetylcholinesterase) [%] | inhibition at 1 µM (pseudocholinesterase [1]) [%] | inhibition at 10 µM (pseudocholinesterase [1]; 10 μM) [%] | further results |
| --- | --- | --- | --- | --- | --- |
| NP(N)(=O)NC(=O)c1ccccc1 [Test Compound 1] | 4.1 | 37.3 | 92.7 | 99.1 | – |
| NP(N)(=O)NC(=O)c1cccnc1 [Test Compound 2] | -1.9 | 70.7 | 84.1 | 97.6 | – |
| NP(N)(=O)NC(=O)c1ccc([N+](=O)[O-])cc1 [Test Compound 3] | 64.3 | 86.9 | 90.4 | 99 | – |
| Nc1ccc(C(=O)NP(N)(N)=O)cc1 [Test Compound 5] | 1.8 | 32.1 | 57.7 | 98.2 | – |
| NP(N)(=O)NC(=O)c1ccc(Cl)cc1 [Test Compound 6] | 5.4 | 86.5 | 87.7 | 98.7 | – |
| NP(N)(=O)NC(=O)c1cccc([N+](=O)[O-])c1 [Test Compound 7] | 23.9 | 86.6 | 65.6 | 98.9 | – |
| COc1ccc(C(=O)NP(N)(N)=O)cc1 [Test Compound 8] | 3 | 34.2 | 83.4 | 96.3 | – |
| Cc1ccc(C(=O)NP(N)(N)=O)cc1 [Test Compound 9] | 9.6 | 46 | 73.7 | 98.1 | – |
| Cc1ccccc1C(=O)NP(N)(N)=O [Test Compound 10] | 8.6 | 44.5 | 21.4 | 89.2 | – |
| NP(N)(=O)NC(=O)c1ccccc1Cl [Test Compound 11] | 32.1 | 87.3 | 49.5 | 98.5 | – |
| N#Cc1ccc(C(=O)NP(N)(N)=O)cc1 [Test Compound 12] | 34.4 | 85.5 | 97.4 | 98.8 | – |
| NP(N)(=O)NC(=O)c1cccc(F)c1 [Test Compound 13] | -4 | 41.3 | 80.2 | 98.8 | – |
| NP(N)(=O)NC(=O)c1cccc(C(F)(F)F)c1 [Test Compound 14] | 25.7 | 85.9 | 25 | 94.1 | – |
| NP(N)(=O)NC(=O)c1ccccc1F [Test Compound 15] | 14.7 | 82.1 | 97.4 | 99.3 | – |
| CC(C)(C)c1ccc(C(=O)NP(N)(N)=O)cc1 [Test Compound 16] | 3.1 | 38.7 | 46.3 | 97.9 | – |
| NP(N)(=O)NC(=O)c1ccc2ccccc2c1 [Test Compound 17] | – | – | – | – | inhibition at 5 µM (acetylcholinesterase; 5 μM (footnote a)): 16%; inhibition at 50 µM (acetylcholinesterase; 50 μM (footnote a)): 87.2%; inhibition at 0.5 µM (pseudocholinesterase [1]; 0.5 μM (footnote a)): 27.4%; inhibition at 5 µM (pseudocholinesterase [1]; 5.0 μM (footnote a)): 95.1% |
| NP(N)(=O)NC(=O)Cc1ccccc1 [Test Compound 18] | 17.1 | 85.2 | 10.7 | 61.3 | – |
| NP(N)(=O)NC(=O)c1cccc(Oc2ccccc2)c1 [Test Compound 19] | 15.8 | 64.2 | 63.7 | 98.3 | – |
| CS(=O)(=O)c1ccc(C(=O)NP(N)(N)=O)cc1 [Test Compound 20, N-(diaminophosphinyl)-4-(methylsulfonyl)benzamide] | 20.5 | 86.4 | 92.9 | 98.5 | – |
| NP(N)(=O)NC(=O)c1c(F)cccc1F [Test Compound 21] | 51.1 | 93.7 | 74.4 | 98.7 | – |
| CCCCOc1ccc(C(=O)NP(N)(N)=O)cc1 [Test Compound 22] | 12.6 | 57.4 | 28.8 | 94.9 | – |
| NP(N)(=O)NC(=O)C=Cc1ccccc1 [Test Compound 23] | 6.6 | 54.8 | 11.5 | 73.2 | – |
| NP(N)(=O)NC(=O)c1ccc(-c2ccccc2)cc1 [Test Compound 24] | – | – | – | – | inhibition at 2.5 µM (acetylcholinesterase; 2.5 μM (footnote b)): -3.7%; inhibition at 25 µM (acetylcholinesterase; 25 μM (footnote b)): 34.8%; inhibition at 0.25 µM (pseudocholinesterase [1]; 0.25 μM (footnote b)): 5.3%; inhibition at 2.5 µM (pseudocholinesterase [1]; 2.5 μM (footnote b)): 66.6% |
| Nc1ccc(S(=O)(=O)Nc2cccc(C(=O)NP(N)(N)=O)c2)cc1 [Test Compound 25] | 62.2 | 88.5 | 97.2 | 99 | – |
| NP(N)(=O)NC(=O)c1ccco1 [Test Compound 26] | 7.7 | 73 | 91 | 98.7 | – |
| CC(C)NP(N)(=O)NC(=O)c1ccc(F)cc1 (stereo not drawn) [Test Compound 27, N-[amino-(1-methylethylamino)phosphinyl]-4-fluorobenzamide] | – | – | – | – | inhibition at 50 µM (acetylcholinesterase; 50 μM (footnote c)): 5.8%; inhibition at 500 µM (acetylcholinesterase; 500 μM (footnote c)): 32.2%; inhibition at 10 µM (pseudocholinesterase [1]; 10 μM (footnote c)): 8.7%; inhibition at 100 µM (pseudocholinesterase [1]; 100 μM (footnote c)): 43.3% |
| NP(N)(=O)NC(=O)c1ccc([N+](=O)[O-])o1 [Test Compound 28] | 46.9 | 93.1 | 21 | 90.8 | – |
| CCOP(=S)(OCC)Oc1ccc([N+](=O)[O-])cc1 [parathione] | – | – | – | – | blood plasma level of pseudocholinesterase (pseudocholinesterase [2]): markedly decreased; HDL [3]: increased; blood plasma level of LDL [3]: markedly decreased |
